Converted amounts (≈) assume the structure as drawn.
Key:
Test in all cases: minimal inhibitory concentration, two-fold agar dilution
Format in all cases: cell-based
[1] = test system: Klebsiella pneumoniae ATCC 10031; conditions: ATCC10031, Muller-Hinton agar, 37°C, 20 hours, read-out: MIC values against the standard strains
Summary of the method: (§1)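 Compounds were serially diluted two-fold into Mueller-Hinton agar, and each plate was spot-inoculated with the test strain at 10⁷ CFU per ml. Plates were incubated at 37°C for 20 hours before MIC values were read.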

[2] = test system: Serratia marcescens ATCC 27117; conditions: ATCC27117, Muller-Hinton agar, 37°C, 20 hours, read-out: MIC values against the standard strains
Summary of the method: as §1

[3] = test system: Streptococcus faecalis ATCC 29212; conditions: Enterococcus faecalis, ATCC29212; Muller-Hinton agar; 37°C; 20 hours; read-out: MIC values against the standard strains
Summary of the method: as §1

[4] = test system: Pseudomonas aeruginosa ATCC 10145; conditions: ATCC10145, Muller-Hinton agar, 37°C, 20 hours, read-out: MIC values against the standard strains
Summary of the method: as §1

[5] = test system: Proteus mirabilis ATCC 25933; conditions: ATCC25933, Muller-Hinton agar, 37°C, 20 hours, read-out: MIC values against the standard strains
Summary of the method: as §1

[6] = test system: Morganella morganii ATCC 8076h; conditions: ATCC8076H, Muller-Hinton agar, 37°C, 20 hours, read-out: MIC values against the standard strains
Summary of the method: as §1

[7] = test system: Pseudomonas aeruginosa ATCC 27853; conditions: ATCC27853, Muller-Hinton agar, 37°C, 20 hours, read-out: MIC values against the standard strains
Summary of the method: as §1

[8] = test system: Enterobacter aerogenes ATCC 29751; conditions: Klebsiella aerogenes, ATCC29751; Muller-Hinton agar; 37°C; 20 hours; read-out: MIC values against the standard strains
Summary of the method: as §1

[9] = test system: Acinetobacter calcoaceticus ATCC 15437; conditions: ATCC15437, Muller-Hinton agar, 37°C, 20 hours, read-out: MIC values against the standard strains
Summary of the method: as §1

[10] = test system: Pseudomonas aeruginosa ATCC 25619; conditions: ATCC25619, Muller-Hinton agar, 37°C, 20 hours, read-out: MIC values against the standard strains
Summary of the method: as §1

[11] = test system: Providencia rettgeri ATCC 9250; conditions: ATCC9250, Muller-Hinton agar, 37°C, 20 hours, read-out: MIC values against the standard strains
Summary of the method: as §1

[12] = test system: Salmonella typhimurium ATCC 14028; conditions: Salmonella enterica; Muller-Hinton agar; 37°C; 20 hours; read-out: MIC values against the standard strains
Summary of the method: as §1

[13] = test system: Shigella sonnei ATCC 11060; conditions: ATCC11060, Muller-Hinton agar, 37°C, 20 hours, read-out: MIC values against the standard strains
Summary of the method: as §1

[14] = test system: Bacillus cereus ATCC 11778; conditions: ATCC11778, Muller-Hinton agar, 37°C, 20 hours, read-out: MIC values against the standard strains
Summary of the method: as §1

[15] = test system: Escherichia coli ATCC 10536; conditions: ATCC10536, Muller-Hinton agar, 37°C, 20 hours, read-out: MIC values against the standard strains
Summary of the method: as §1

[16] = test system: Bacillus megaterium ATCC 9885; conditions: Priestia megaterium, ATCC9885; Muller-Hinton agar; 37°C; 20 hours; read-out: MIC values against the standard strains
Summary of the method: as §1

[17] = test system: Escherichia coli ATCC 25922; conditions: ATCC25922, Muller-Hinton agar, 37°C, 20 hours, read-out: MIC values against the standard strains
Summary of the method: as §1

[18] = test system: Staphylococcus epidermidis ATCC 12228; conditions: ATCC12228, Muller-Hinton agar, 37°C, 20 hours, read-out: MIC values against the standard strains
Summary of the method: as §1

[19] = test system: Proteus vulgaris ATCC 6059; conditions: ATCC6059, Muller-Hinton agar, 37°C, 20 hours, read-out: MIC values against the standard strains
Summary of the method: as §1

[20] = test system: Enterobacter cloacae ATCC 27508; conditions: ATCC27508, Muller-Hinton agar, 37°C, 20 hours, read-out: MIC values against the standard strains
Summary of the method: as §1

[21] = test system: Staphylococcus aureus ATCC 6538p; conditions: ATCC6538P, Muller-Hinton agar, 37°C, 20 hours, read-out: MIC values against the standard strains
Summary of the method: as §1

[22] = test system: Citrobacter freundii ATCC 8090; conditions: ATCC8090, Muller-Hinton agar, 37°C, 20 hours, read-out: MIC values against the standard strains
Summary of the method: as §1

[23] = test system: Shigella flexneri ATCC 11836; conditions: ATCC11836, Muller-Hinton agar, 37°C, 20 hours, read-out: MIC values against the standard strains
Summary of the method: as §1

[24] = test system: Staphylococcus aureus ATCC 10537; conditions: ATCC10537, Muller-Hinton agar, 37°C, 20 hours, read-out: MIC values against the standard strains
Summary of the method: as §1

[25] = test system: Micrococcus luteus ATCC 9341; conditions: ATCC9341, Muller-Hinton agar, 37°C, 20 hours, read-out: MIC values against the standard strains
Summary of the method: as §1

Row | SMILES | MIC [1] [µg/mL] | MIC [2] [µg/mL] | MIC [3] [µg/mL] | MIC [4] [µg/mL] | MIC [5] [µg/mL] | MIC [6] [µg/mL] | MIC [7] [µg/mL] | MIC [8] [µg/mL] | MIC [9] [µg/mL] | MIC [10] [µg/mL] | MIC [11] [µg/mL] | MIC [12] [µg/mL] | MIC [13] [µg/mL] | MIC [14] [µg/mL] | MIC [15] [µg/mL] | MIC [16] [µg/mL] | MIC [17] [µg/mL] | MIC [18] [µg/mL] | MIC [19] [µg/mL] | MIC [20] [µg/mL] | further results
1 | CCO/N=C(\C(=O)N[C@@H]1C(=O)N2C(C(=O)[O-])=C(CSc3nc(N)c(N)c(N)[n+]3CC)CS[C@H]12)c1csc(N)n1 [Example 13, 7-[(Z)-2-(2-aminothiazol-4-yl)-2-(ethoxyimino)acetamido]-3-(4,5,6-triamino-1-ethylpyrimidinium-2-yl)thiomethyl-3-cephem-4-carboxylate] | 0.13 (≈ 0.219 µM) | 1 (≈ 1.68 µM) | > 128 | 64 (≈ 108 µM) | 2 (≈ 3.36 µM) | 0.13 (≈ 0.219 µM) | 32 (≈ 53.8 µM) | 2 (≈ 3.36 µM) | 16 (≈ 26.9 µM) | 8 (≈ 13.5 µM) | 0.13 (≈ 0.219 µM) | 1 (≈ 1.68 µM) | 0.5 (≈ 0.841 µM) | 64 (≈ 108 µM) | 0.063 (≈ 0.106 µM) | 0.13 (≈ 0.219 µM) | 0.063 (≈ 0.106 µM) | 0.13 (≈ 0.219 µM) | 2 (≈ 3.36 µM) | 0.016 (≈ 0.0269 µM) | MIC [21]: 0.5 µg/mL (≈ 0.841 µM); MIC [22]: 0.5 µg/mL (≈ 0.841 µM); MIC [23]: 0.5 µg/mL (≈ 0.841 µM); MIC [24]: 0.25 µg/mL (≈ 0.42 µM); MIC [25]: 0.13 µg/mL (≈ 0.219 µM)
2 | CCO/N=C(\C(=O)N[C@@H]1C(=O)N2C(C(=O)[O-])=C(CSc3nc(N)cc[n+]3CC)CS[C@H]12)c1csc(N)n1 [Example 14, 7-[(Z)-2-(2-aminothiazol-4-yl)-2-(ethoxyimino)acetamido]-3-(4-amino-1-ethylpyrimidinium-2-yl)thiomethyl-3-cephem-4-carboxylate] | 0.13 (≈ 0.23 µM) | 1 (≈ 1.77 µM) | > 128 | 64 (≈ 113 µM) | 2 (≈ 3.54 µM) | 0.13 (≈ 0.23 µM) | 32 (≈ 56.7 µM) | 1 (≈ 1.77 µM) | 16 (≈ 28.3 µM) | 8 (≈ 14.2 µM) | 0.063 (≈ 0.112 µM) | 1 (≈ 1.77 µM) | 0.25 (≈ 0.443 µM) | 32 (≈ 56.7 µM) | 0.13 (≈ 0.23 µM) | 0.25 (≈ 0.443 µM) | 0.063 (≈ 0.112 µM) | 0.25 (≈ 0.443 µM) | 2 (≈ 3.54 µM) | 0.13 (≈ 0.23 µM) | MIC [21]: 0.5 µg/mL (≈ 0.885 µM); MIC [22]: 0.13 µg/mL (≈ 0.23 µM); MIC [23]: 0.25 µg/mL (≈ 0.443 µM); MIC [24]: 0.25 µg/mL (≈ 0.443 µM); MIC [25]: 0.25 µg/mL (≈ 0.443 µM)
3 | CCO/N=C(\C(=O)N[C@@H]1C(=O)N2C(C(=O)[O-])=C(CSc3nc(N)c(N)c(N)[n+]3CC)CS[C@H]12)c1nsc(N)n1 [Example 15, 7-[(Z)-2-(5-amino-1,2,4-thiadiazol-3-yl)-2-(ethoxyimino)acetamido]-3-(4,5,6-triamino-1-ethylpyrimidinium-2-yl)thiomethyl-3-cephem-4-carboxylate] | 0.016 (≈ 0.0269 µM) | 0.5 (≈ 0.839 µM) | 32 (≈ 53.7 µM) | 8 (≈ 13.4 µM) | 1 (≈ 1.68 µM) | ≤ 0.008 | 2 (≈ 3.36 µM) | 0.063 (≈ 0.106 µM) | 4 (≈ 6.71 µM) | 1 (≈ 1.68 µM) | ≤ 0.008 | 0.5 (≈ 0.839 µM) | 0.25 (≈ 0.42 µM) | 32 (≈ 53.7 µM) | 0.063 (≈ 0.106 µM) | 0.13 (≈ 0.218 µM) | 0.063 (≈ 0.106 µM) | 0.25 (≈ 0.42 µM) | 1 (≈ 1.68 µM) | 0.031 (≈ 0.052 µM) | MIC [21]: 0.5 µg/mL (≈ 0.839 µM); MIC [22]: 0.5 µg/mL (≈ 0.839 µM); MIC [23]: 0.25 µg/mL (≈ 0.42 µM); MIC [24]: 0.25 µg/mL (≈ 0.42 µM); MIC [25]: 0.063 µg/mL (≈ 0.106 µM)
4 | CCO/N=C(\C(=O)N[C@@H]1C(=O)N2C(C(=O)[O-])=C(CSc3nc(N)cc[n+]3CC)CS[C@H]12)c1nsc(N)n1 [Example 16, 7-[(Z)-2-(5-amino-1,2,4-thiadiazol-3-yl)-2-(ethoxyimino)acetamido]-3-(4-amino-1-ethylpyrimidinium-2-yl)thiomethyl-3-cephem-4-carboxylate] | 0.016 (≈ 0.0283 µM) | 1 (≈ 1.77 µM) | 32 (≈ 56.6 µM) | 16 (≈ 28.3 µM) | 2 (≈ 3.54 µM) | 0.031 (≈ 0.0548 µM) | 4 (≈ 7.07 µM) | 0.063 (≈ 0.111 µM) | 8 (≈ 14.1 µM) | 2 (≈ 3.54 µM) | 0.031 (≈ 0.0548 µM) | 1 (≈ 1.77 µM) | 0.5 (≈ 0.884 µM) | 64 (≈ 113 µM) | 0.031 (≈ 0.0548 µM) | 0.5 (≈ 0.884 µM) | 0.031 (≈ 0.0548 µM) | 0.5 (≈ 0.884 µM) | 2 (≈ 3.54 µM) | 0.063 (≈ 0.111 µM) | MIC [21]: 0.25 µg/mL (≈ 0.442 µM); MIC [22]: 0.5 µg/mL (≈ 0.884 µM); MIC [23]: 0.5 µg/mL (≈ 0.884 µM); MIC [24]: 0.5 µg/mL (≈ 0.884 µM); MIC [25]: 0.5 µg/mL (≈ 0.884 µM)
5 | COc1cc(N)nc(SCC2=C(C(=O)[O-])N3C(=O)[C@@H](NC(=O)/C(=N\OC(C)(C)C(=O)O)c4csc(N)n4)[C@H]3SC2)[n+]1C [Example 17, 7-[(Z)-2-(2-aminothiazol-4-yl)-2-(carboxyprop-2-oxyimino)acetamido]-3-(4-amino-6-methoxy-1-methylpyrimidinium-2-yl)thiomethyl-3-cephem-4-carboxylate] | 0.063 (≈ 0.0986 µM) | 0.25 (≈ 0.391 µM) | > 128 | 4 (≈ 6.26 µM) | 0.063 (≈ 0.0986 µM) | 0.016 (≈ 0.0251 µM) | 2 (≈ 3.13 µM) | 4 (≈ 6.26 µM) | 2 (≈ 3.13 µM) | 1 (≈ 1.57 µM) | 0.13 (≈ 0.204 µM) | 0.25 (≈ 0.391 µM) | 0.13 (≈ 0.204 µM) | 128 (≈ 200 µM) | 0.063 (≈ 0.0986 µM) | 0.25 (≈ 0.391 µM) | 0.13 (≈ 0.204 µM) | 1 (≈ 1.57 µM) | 0.13 (≈ 0.204 µM) | 0.016 (≈ 0.0251 µM) | MIC [21]: 4 µg/mL (≈ 6.26 µM); MIC [22]: 0.13 µg/mL (≈ 0.204 µM); MIC [23]: 0.031 µg/mL (≈ 0.0485 µM); MIC [24]: 1 µg/mL (≈ 1.57 µM); MIC [25]: 0.5 µg/mL (≈ 0.783 µM)
6 | CCO/N=C(\C(=O)N[C@@H]1C(=O)N2C(C(=O)[O-])=C(CSc3nc(N)cc(OC)[n+]3C)CS[C@H]12)c1csc(N)n1 [Example 18, 7-[(Z)-2-(2-aminothiazol-4-yl)-2-(ethoxyimino)acetamido]-3-(4-amino-6-methoxy-1-methylpyrimidinium-2-yl)thiomethyl-3-cephem-4-carboxylate] | ≤ 0.008 | 0.5 (≈ 0.861 µM) | 16 (≈ 27.6 µM) | 16 (≈ 27.6 µM) | 0.5 (≈ 0.861 µM) | ≤ 0.008 | 16 (≈ 27.6 µM) | 1 (≈ 1.72 µM) | 8 (≈ 13.8 µM) | 2 (≈ 3.44 µM) | ≤ 0.008 | 0.5 (≈ 0.861 µM) | 0.25 (≈ 0.431 µM) | 32 (≈ 55.1 µM) | 0.13 (≈ 0.224 µM) | 0.13 (≈ 0.224 µM) | 0.25 (≈ 0.431 µM) | 0.13 (≈ 0.224 µM) | 0.5 (≈ 0.861 µM) | ≤ 0.008 | MIC [21]: 0.5 µg/mL (≈ 0.861 µM); MIC [22]: 0.13 µg/mL (≈ 0.224 µM); MIC [23]: 0.13 µg/mL (≈ 0.224 µM); MIC [24]: 0.25 µg/mL (≈ 0.431 µM); MIC [25]: 0.016 µg/mL (≈ 0.0276 µM)

Reference: patent EP0584797A2, “Novel cephalosporin compounds and processes for the preparation thereof” (LUCKY LTD., priority 1992, dated 1994)
